On the set-up of series [1]: method as in earlier work. The settings on record: cited from earlier work.
The conditions of series [2]: human, in vivo.
Excerpt: (§1) Information regarding age, sex, daily dose and time between last dose and blood sampling was also collected from the database. For patients with multiple TDM measurements, only the last measurement was included. Included patients were divided into four subgroups based on age: (a) < 18, (b) 18–64, (c) 65–80, and (d) > 80 years.
(§2) Measured serum concentrations represent total concentrations, i.e. the sum of bound and unbound drug.
(§3) All patients were included unless they met the exclusion criteria. Exclusion criteria were: (a) serum concentration of citalopram, escitalopram and/or demethylcitalopram outside the limits of quantification (LOQ), (b) blood sampling not performed at trough levels, outside the time interval of 10–28 h after last dose intake, (c) prescribed dose of citalopram or escitalopram less/more than 2.5–80 mg or 2.5–60 mg, respectively, and (d) detection of interacting drugs in the citalopram/escitalopram serum sample. In detail, we screened the samples for CYP2C19 inducers carbamazepine, phenobarbital and phenytoin and the CYP2C19 or –2D6 inhibitors bupropion, fluoxetine, fluvoxamine, paroxetine or levomepromazine.
(§4) Differences in absolute serum concentrations of citalopram, escitalopram and metabolites as well as differences in time between last blood sampling and daily dose was investigated across the age subgroups using Kruskal Wallis test followed by Dunn's test. P-values were Bonferroni corrected by multiplying the P-value by the number of statistical analyses that were performed.
For series [3] the following is noted: after intake of 20 mg; cited from earlier work.
Series [4] is described as follows: Therapeutic drug monitoring (TDM) serum concentrations in patients. The note with it: escitalopram users.
Excerpt: as §1, §2, §3, §4
The conditions of series [5]: cited from earlier work.
In a further series the test system is plasma protein. Further details: method as in PMID 17375980. The note with it: listed as escitalopram; cited from earlier work.
Details of series [6]: method as in PMID 19841156. The settings on record: cited from earlier work.
The test system of series [7] is human induced pluripotent stem cell-derived cardiomyocytes (hiPSC-CM). As to the kind of experiment: Action potential recordings in hiPSC-CM with voltage sensitive dye (FluoVolt, CellOPTIQ). Type of series: cell-based. On the procedure: Cryopreserved human induced pluripotent stem cell-derived cardiomyocytes (hiPSC-CM): CDI iCell cardiomycytes^2 01434 CardioTox Kit (Catalog #: R1222, FujiFilm CDI, Madison, WI) were kept in liquid nitrogen until culture according to instructions by the manufacturer. […] All studies were conducted at Clyde Biosciences (Glasgow, Scotland). Cells were cultured in 96-well glass-bottomed plates (MatTek, Ashland, Massachusetts) coated with fibronectin ([…] in PBS supplemented with Ca2+ and Mg2+) (Sigma, St. Louis, Missouri) in a humidified incubator at 37 °C for 3 h. The cell density was 50,000 cells/cm2 (25,000 cells/well). The subsequent maintenance protocols followed manufacturer's instructions using their maintenance medial (FujiFilm CDI Cardiomyocytes Maintenance Media). Experiments were performed between days 4–8. Prior to beginning an experiment, cells were washed in serum-free media (SF media), specifically DMEM (Gibco, ThermoFisher Scientific, UK) supplemented with 10 mM galactose and 10 mM sodium pyruvate.
hiPSC-CM were loaded with 5 μM FluoVolt (ThermoFisher) and the multiwell plate was placed in the CellOPTIQ platform (at Clyde Biosciences Ltd, Glasgow, Scotland). The FluoVolt fluorescence signal was recorded using a 40 × (NA 0.6) objective lens. Excitation wavelength was 480 ± 10 nm, and emitted light was collected by a photomultiplier (PMT) at 510–560 nm. Drugs were supplied by Santa Cruz Biotechnology (Germany) and Toronto Research Chemicals (Canada). Their identity and concentration were blinded from the laboratory personnel. […] 30 min after exposure to the tested drug or vehicle a 20 s recording was taken. Offline analysis was performed using proprietary software (CellOPTIQ®). The following (averaged) parameters were obtained from the AP recordings of 4 independent replicates: cycle length (CL, […]); rise time (Trise, ms) between 10 and 90% of the AP amplitude, and AP durations (APD, ms) from 10% to 90% repolarization at 10% intervals. In this study rate-correction was based on previous studies.[14]
Drugs were tested at 3 concentrations with matched vehicle controls for each concentration. The chosen escitalopram (S-citalopram) concentration was 60 nM. Assuming no protein binding in the in vitro model, this corresponds to a total serum concentration of 136 nM, as escitalopram protein binding is reported at 55–56% (most commonly 56%, which is used in the present study).[15], [16], [17] […] This could vary with age and clinical conditions.[20] […] In a large therapeutic drug monitoring (TDM) study 60 nM was the average total concentration in patients with normal escitalopram metabolism through CYP2C19, and 136 nM was below the average total concentration in poor metabolizers.[7] After administration of racemic citalopram, R-citalopram is reported to be 3 times higher than S-citalopram in a publication by Ji et al.[22] The typical concentration of R-citalopram as well as the S-/R-demethylcitalopram and S-/R-didemethylcitalopram metabolites, were calculated according to ratios from their paper.[22]
Shapiro Wilk tests were used to determine whether the data in this study were normally distributed based on a least-squares fit to a normal function, while Brown–Forsythe test was used to verify homogeneity of variance (Origin version 9, OriginLab Corp., Northampton, Massachusetts). […] Statistical tests were made using a paired t-tests for differences between absolute values, with P-values adjusted for multiple comparisons using the Benjamini-Hochberg procedure (one-way ANOVA). The relationship between AP duration at 90% of repolarization (APD90) and CL or diastolic interval was fit to single or double exponential functions (Origin version 9).

Molecules are shown by their SMILES. Where “and” joins values, the source holds several entries; their conditions need not be identical. Equal values may be shown once. Entries after “also recorded” stand apart in the source; their conditions may differ. Read-outs that look alike come from different tables or passages of the source.

On to `N#Cc1ccc2c(c1)COC2(CCCN)c1ccc(F)cc1` (stereo not drawn) [Didemethylcitalopram, didemethylcitalopram], for which the “Serum concentrations associated with sudden death in dogs, relative to humans” value in series [1] is 39–155 times. In series [2], the “Serum concentration, 10% percentile” value worked out at 0.82 nmol/L; the “Serum concentration, 25% percentile” value was found to be 1.72 nmol/L; the “Serum concentration, 50% percentile” value is recorded as 3.47 nmol/L; the “Serum concentration, 75% percentile” value worked out at 5.90 nmol/L. Moreover, in series [2], the “Serum concentration, 90% percentile” value came to 9.65 nmol/L; the “Serum concentration, maximum” value is reported as 35.33 nmol/L; the “Serum concentration, minimum” value came to 0.34 nmol/L.
With `CN(C)CCC[C@@]1(c2ccc(F)cc2)OCc2cc(C#N)ccc21` [S-citalopram], the “FDA-reported QTc-prolongation” value in series [3] is listed as 6.6 ms. Moreover, in series [4] (trough), the “Serum concentration, 10% percentile” value stood at 21 nmol/L; the “Serum concentration, 25% percentile” value was determined as 33 nmol/L; the “Serum concentration, 50% percentile” value was 52 nmol/L; the “Serum concentration, 75% percentile” value amounted to 84 nmol/L. Further, in series [4] (trough), the “Serum concentration, 90% percentile” value was found to be 126 nmol/L; the “Serum concentration, maximum” value turned out to be 730 nmol/L; the “Serum concentration, minimum” value is 7 nmol/L. Besides, the “Serum concentration, mean” value in series [4] (trough (10-28 h after dose)) is 66 nmol/L. Besides, the “% of serum concentrations above 136 nM” value in series [2] is 5.4-15.9%. The “Serum concentrations per dose, patients >65 years versus adults <40 years” value in series [5] was 1.4 times. Moreover, in series [5] (large TDM study), the “Average total concentration in CYP2C19 poor metabolizers” value was above 136 nM and the “Average total concentration in patients with normal escitalopram metabolism through CYP2C19” value was 60 nM. Besides, the “Time of maximum concentration after intake (Tmax)” value in series [5] (listed as escitalopram) was 3 to 4 h and 3.0 ± 1.5 h. For the same compound, the Plasma protein binding with plasma protein is 55–56% and 56%. Moreover, the “Clearance, typical value (CLTV)” value in series [6] (CYP2C19 normal/rapid metabolizer) is reported as 26.0 L/h. Further, in series [6] (CYP2C19 poor/intermediate metabolizer), the “Clearance, typical value (CLTV)” value was 19.8 L/h. Besides, in series [6] (population PK model), the “Absorption rate constant, typical value (KaTV)” value is 0.8 h⁻¹ and the “Volume of distribution, typical value (VTV)” value was 947 L. Also, the “Calculated total serum concentration corresponding to a free concentration of 60 nM (potential pro-arrhythmic activity)” value in series [7] (assuming 56% plasma protein binding) is listed as 136 nM. Besides, the Triangulation effect result in series [7] (hiPSC-CM, 10 times typical concentrations) is listed as “substantial increase”. The “% Change of cycle length from baseline” value in series [7] (hiPSC-CM, 10x clinical concentration) is recorded as -2.06±5.36%. Also, the “% Change of cycle length from baseline” value in series [7] (hiPSC-CM, 100x clinical concentration) is recorded as “Quiescent”. In series [7] (hiPSC-CM, 30 min exposure), the “Concentration that increased late repolarisation (APD90)” value is reported as 60 nM and the “Concentration that increased triangulation (APD90-APD30) of the action potential” value came to 60 nM. The “Effect on cycle length” value in series [7] (hiPSC-CM, all tested concentrations) is recorded as “not affected”. Besides, the “% Change of cycle length from baseline” value in series [7] (hiPSC-CM, clinical concentration) was 2.14±4.47%. Further, the “Electrical activity of the cells” value in series [7] (hiPSC-CM, highest concentrations (100 times typical)) is recorded as “electrically quiescent”. In addition, the “Depolarisation (phase 0) measured by TRise” value in series [7] (hiPSC-CM, increasing concentrations) is listed as “No changes; also recorded: No significant increase”. For the same compound, in series [7] (hiPSC-CM, intermediate concentrations), the “Early and medium repolarisation (APD30 and APD50)” value was “shortening”. For the same compound, the “Triangulation (APD90-APD30) effect” value in series [7] (hiPSC-CM, low concentrations) is given as “significantly increased”. For the same compound, the “Increase in APD90” value in series [7] (hiPSC-CM, lowest S-citalopram concentration (60 nM)) is 21.9 ms. Moreover, in series [7] (hiPSC-CM, lowest tested concentrations), the Late repolarisation result is “prolonged”. The “QTc-prolongation corresponding to the APD90 increase” value in series [7] (lowest S-citalopram concentration, translation per ref 33) was 6.2 ms.

(Values after paper PMC10474154, “Pro-arrhythmic effect of escitalopram and citalopram at serum concentrations commonly observed in older patients – a study based on a cohort of 19,742 patients” (eBioMedicine, 2023).)
